Test results taken from ChEMBL document CHEMBL4270599, “Synthesis of a 3'-C-ethynyl-β-d-ribofuranose purine nucleoside library: Discovery of C7-deazapurine analogs as potent antiproliferative nucleosides” (Eur J Med Chem, 2018).

Legend:
Assay type in all cases: functional
HL-60(TB) [1] = experiment: Cytotoxicity against human HL-60(TB) cells after 48 hrs by SRB assay; settings: HL-60, 48 h
HOP-62 [2] = experiment: Cytotoxicity against human HOP62 cells after 48 hrs by SRB assay; settings: HOP-62, 48 h
HCT-116 [3] = experiment: Cytotoxicity against human HCT116 cells after 48 hrs by SRB assay; settings: HCT-116, 48 h
PC-3 [4] = experiment: Cytotoxicity against human PC3 cells after 48 hrs by SRB assay; settings: PC-3, 48 h
MCF7 [5] = experiment: Cytotoxicity against human MCF7 cells after 48 hrs by SRB assay; settings: MCF7, 48 h
Hs-578T [6] = experiment: Cytotoxicity against human Hs 578T cells after 48 hrs by SRB assay
T47D [7] = experiment: Cytotoxicity against human T47D cells after 48 hrs by SRB assay
HL-60(TB) [8] = experiment: Growth inhibition of human HL-60(TB) cells assessed as cell growth at 10^-8 M incubated for 48 hrs by sulforhodamine B assay relative to control; settings: HL-60, 48 h, read-out: Activity
HOP-62 [9] = experiment: Growth inhibition of human HOP62 cells assessed as cell growth at 10^-8 M incubated for 48 hrs by sulforhodamine B assay relative to control; settings: HOP-62, 48 h, read-out: Activity
NCI-H226 = experiment: Growth inhibition of human NCI-H226 cells assessed as cell growth at 10^-8 M incubated for 48 hrs by sulforhodamine B assay relative to control; settings: NCI-H226, 48 h, read-out: Activity
IGROV-1 = experiment: Growth inhibition of human IGROV1 cells assessed as cell growth at 10^-8 M incubated for 48 hrs by sulforhodamine B assay relative to control; settings: IGROV-1, 48 h, read-out: Activity
OVCAR-4 = experiment: Growth inhibition of human OVCAR4 cells assessed as cell growth at 10^-8 M incubated for 48 hrs by sulforhodamine B assay relative to control; settings: OVCAR-4, 48 h, read-out: Activity
OVCAR-8 = experiment: Growth inhibition of human OVCAR8 cells assessed as cell growth at 10^-8 M incubated for 48 hrs by sulforhodamine B assay relative to control; settings: OVCAR-8, 48 h, read-out: Activity
A498 = experiment: Growth inhibition of human A498 cells assessed as cell growth at 10^-8 M incubated for 48 hrs by sulforhodamine B assay relative to control; settings: A498, 48 h, read-out: Activity
BT-549 = experiment: Growth inhibition of human BT549 cells assessed as cell growth at 10^-8 M incubated for 48 hrs by sulforhodamine B assay relative to control; settings: BT-549, 48 h, read-out: Activity
SF-295 = experiment: Growth inhibition of human SF295 cells assessed as cell growth at 10^-7 M incubated for 48 hrs by sulforhodamine B assay relative to control; settings: SF-295, 48 h, read-out: Activity
MDA-MB-435 = experiment: Growth inhibition of human MDA-MB-435 cells assessed as cell growth at 10^-7 M incubated for 48 hrs by sulforhodamine B assay relative to control; settings: MDA-MB-435, 48 h, read-out: Activity
RXF 393 = experiment: Growth inhibition of human RXF393 cells assessed as cell growth at 10^-7 M incubated for 48 hrs by sulforhodamine B assay relative to control; settings: RXF 393, 48 h, read-out: Activity
T47D [10] = experiment: Growth inhibition of human T47D cells assessed as cell growth at 10^-7 M incubated for 48 hrs by sulforhodamine B assay relative to control; settings: read-out: Activity
NCI-H460 = experiment: Growth inhibition of human NCI-H460 cells assessed as cell growth at 10^-6 M incubated for 48 hrs by sulforhodamine B assay relative to control; settings: NCI-H460, 48 h, read-out: Activity
HCC 2998 = experiment: Growth inhibition of human HCC2998 cells assessed as cell growth at 10^-6 M incubated for 48 hrs by sulforhodamine B assay relative to control; settings: HCC 2998, 48 h, read-out: Activity
SNB-19 = experiment: Growth inhibition of human SNB19 cells assessed as cell growth at 10^-6 M incubated for 48 hrs by sulforhodamine B assay relative to control; settings: SNB-19, 48 h, read-out: Activity
SK-MEL-28 = experiment: Growth inhibition of human SK-MEL-28 cells assessed as cell growth at 10^-6 M incubated for 48 hrs by sulforhodamine B assay relative to control; settings: SK-MEL-28, 48 h, read-out: Activity
ACHN = experiment: Growth inhibition of human ACHN cells assessed as cell growth at 10^-6 M incubated for 48 hrs by sulforhodamine B assay relative to control; settings: read-out: Activity
Hs-578T [11] = experiment: Growth inhibition of human Hs 578T cells assessed as cell growth at 10^-6 M incubated for 48 hrs by sulforhodamine B assay relative to control; settings: read-out: Activity
K562 = experiment: Growth inhibition of human K562 cells assessed as cell growth at 10^-5 M incubated for 48 hrs by sulforhodamine B assay relative to control; settings: K562, 48 h, read-out: Activity
NCI-H23 = experiment: Growth inhibition of human NCI-H23 cells assessed as cell growth at 10^-5 M incubated for 48 hrs by sulforhodamine B assay relative to control; settings: NCI-H23, 48 h, read-out: Activity
HCT-116 [12] = experiment: Growth inhibition of human HCT116 cells assessed as cell growth at 10^-5 M incubated for 48 hrs by sulforhodamine B assay relative to control; settings: HCT-116, 48 h, read-out: Activity
M14 = experiment: Growth inhibition of human M14 cells assessed as cell growth at 10^-5 M incubated for 48 hrs by sulforhodamine B assay relative to control; settings: M14, 48 h, read-out: Activity
PC-3 [13] = experiment: Growth inhibition of human PC3 cells assessed as cell growth at 10^-4 M incubated for 48 hrs by sulforhodamine B assay relative to control; settings: PC-3, 48 h, read-out: Activity
MCF7 [14] = experiment: Growth inhibition of human MCF7 cells assessed as cell growth at 10^-4 M incubated for 48 hrs by sulforhodamine B assay relative to control; settings: MCF7, 48 h, read-out: Activity
UACC-62 = experiment: Growth inhibition of human UACC62 cells assessed as cell growth at 10^-6 M incubated for 48 hrs by sulforhodamine B assay relative to control; settings: UACC-62, 48 h, read-out: Activity
[15] = read-out: pLC50 (the source's name) (converted)
[16] = read-out: LC50 (the source's name)

C#C[C@@]1(O)[C@@H](CO)O[C@@H](n2cc(F)c3c(N)ncnc32)[C@@H]1O
TGI (HL-60(TB) [1]; read-out: TGI): 3.53 µM | GI50 (HL-60(TB) [1]; read-out: pGI50 (converted)): 437 nM | CC50 (HL-60(TB) [1]; [15]): > 100 µM | TGI (HL-60(TB) [1]; read-out: pTGI (converted)): 3.55 µM | TGI (HOP-62 [2]; read-out: TGI): 7.79 µM | GI50 (HOP-62 [2]; read-out: pGI50 (converted)): 575 nM | CC50 (HOP-62 [2]; [15]): > 100 µM | TGI (HOP-62 [2]; read-out: pTGI (converted)): 7.76 µM | CC50 (HCT-116 [3]; [16]): > 100 µM | GI50 (HCT-116 [3]; read-out: pGI50 (converted)): 151 nM | CC50 (PC-3 [4]; [16]): > 100 µM | TGI (PC-3 [4]; read-out: TGI): 3.24 µM | GI50 (PC-3 [4]; read-out: pGI50 (converted)): 295 nM | TGI (PC-3 [4]; read-out: pTGI (converted)): 3.24 µM | CC50 (MCF7 [5]; [16]): > 100 µM | GI50 (MCF7 [5]; read-out: pGI50 (converted)): 102 nM | CC50 (Hs-578T [6]; [16]): > 100 µM | TGI (Hs-578T [6]; read-out: TGI): > 100 µM | GI50 (Hs-578T [6]; read-out: pGI50 (converted)): 3.98 µM | TGI (Hs-578T [6]; read-out: pTGI): > 100 µM | TGI (T47D [7]; read-out: TGI): 770 nM | GI50 (T47D [7]; read-out: pGI50 (converted)): 214 nM | CC50 (T47D [7]; [15]): 20 µM | TGI (T47D [7]; read-out: pTGI (converted)): 776 nM | growth at 0.01 µM (HL-60(TB) [8]): 93% | growth at 0.01 µM (HOP-62 [9]): 90% | growth at 0.01 µM (NCI-H226): 92% | growth at 0.01 µM (IGROV-1): 105% | growth at 0.01 µM (OVCAR-4): 100% | growth at 0.01 µM (OVCAR-8): 96% | growth at 0.01 µM (A498): 86% | growth at 0.01 µM (BT-549): 98% | growth at 0.1 µM (SF-295): 94% | growth at 0.1 µM (MDA-MB-435): 86% | growth at 0.1 µM (RXF 393): 102% | growth at 0.1 µM (T47D [10]): 80% | growth at 1 µM (NCI-H460): 5% | growth at 1 µM (HCC 2998): 37% | growth at 1 µM (SNB-19): 39% | growth at 1 µM (SK-MEL-28): 72% | growth at 1 µM (ACHN): 9% | growth at 1 µM (Hs-578T [11]): 97% | growth at 10 µM (K562): 8% | growth at 10 µM (NCI-H23): -4% | growth at 10 µM (HCT-116 [12]): -9% | growth at 10 µM (M14): -48% | growth at 100 µM (PC-3 [13]): -31% | growth at 100 µM (MCF7 [14]): -21% | growth at 1 µM (UACC-62): 12%
